Data from patent US20250186379A1, “METHODS AND AGENTS FOR DECREASING INSULIN RESISTANCE” (Whitehead Institute for Biomedical Research, priority 2021, published 2025).
“Also recorded” adds a separate entry of the source.

System: IR condensates
Assay: Imaging of IR puncta/condensates (immunofluorescence, IR-GFP) in HepG2 cells
Type: cell-based, human
Method: For insulin sensitivity and resistance experiments in HepG2 cells, cells were washed with EMEM once and cultured in EMEM for two days. […] To wash out insulin, cells were washed in EMEM seven times, which includes three quick washes, three 5 min washes and a long 20 minute-wash in EMEM at 37° C. In order to investigate insulin response, cells were acutely treated for 5 min with insulin diluted in EMEM supplemented with 1.25% fatty acid-free BSA at 37° C. with 5% CO2 in a humidified incubator.
Metformin (SIGMA, D150959-5G) was resuspended in sterile water to a concentration of 1M and diluted to the reported concentrations in the figures in cell media. […]
HepG2 cells, human liver spheroids and human tissue liver sections were fixed in 4% PFA (VWR, BT140770-10X10) in PBS for 10 min at room temperature. Cells were washed in PBS three times for 5 min and then blocked with 4% IgG-free BSA (VWR, 102643-516) for 15-60 min at room temperature. Cells were then incubated with 1:500 primary antibody in 4% IgG-free BSA at 4° C. overnight. The next day, cells were washed three times with PBS and incubated with 1:500 secondary antibodies in 4% IgG-free BSA at room temperature for 1 hr covered in foil. Cells were washed three times with PBS for 5 min. DNA was stained using 1:5000 Hoechst in PBS for 5 min at RT. Cells were washed three times with PBS for 5 min, stored at 4° C. until imaging. For tissue sections, samples were mounted using Vectashield mounting media (Vector Laboratories, Inc, H-1000). LSM880 microscope with Airyscan detector (ZEISS) was used for image acquisition. Images were then processed using Fiji/ImageJ v2.1.0/153c.
Cells expressing endogenous IR tagged with GFP were grown on 35 mm glass bottom dishes (MatTek Corporation, P35G-1.5-20-C). Cells were imaged at 37° C. using the SM880 Microscope with Airyscan detector with 63× objective and Zen Black software (ZEISS) at the W.M. Keck Microscopy Facility, MIT. Images were then processed using Fiji/ImageJ v2.1.0/153c.
To quantify IR fluorescent signal in puncta, Fiji/ImageJ v2.1.0/153c was used. A circle or an oval was drawn around IR puncta using the oval selection tool and the average fluorescence intensity in the circle/oval (=in the puncta) was determined using the measure tool on Fiji. Background was then subtracted as previously described. To quantify IR fluorescent signal at puncta in various cellular compartments, applicant identified the location of the plasma membrane, cytoplasm, nucleus and RNA FISH spots as follows. The plasma membrane location was identified based on IR immunofluorescence signal, IR-GFP fluorescent signal or CK18 immunofluorescence signal or cell edge. The nucleus was determined by the Hoechst stain for immunofluorescence and tc-PALM experiments or by IR-GFP fluorescence when HepG2 cells expressing IR-GFP were imaged. Given the overlap between Hoechst fluorescence and GFP fluorescence, artefactual green fluorescence coming from the Hoechst confounded IR puncta identification in the nucleus. Since the differences in IR puncta intensity and concentration between cytoplasm and nucleus in HepG2 cells was clear, nuclear outline was easily drawn based on IR-GFP fluorescent signal. Cytoplasm was considered the region between the plasma membrane and the nucleus. RNA FISH spots were identified based on RNA FISH probe fluorescence. Within the FISH spot, IR intensity was measured using the measure tool.
To estimate the number of IR puncta at the plasma membrane, cytoplasm, nucleus or in entire cells, IR puncta were initially counted in a cell slice using Fiji. The number obtained from the cell slice was then multiplied based on the estimated size of the plasma membrane, cytoplasm, nucleus or entire cell, which were obtained considering the length and width of the cell under investigation and the estimated height (˜5 um). […]

[1] = insulin sensitive HepG2 cells, acute 3 nM insulin
[2] = insulin resistant HepG2 cells, metformin concentration series (FIG. 5A,B)

Question: For “insulin: insulin (Sigma Aldrich, I9278-5ML) used for acute stimulation and chronic physiological or pathological exposure”, which “incorporation of additional IR into condensates/puncta” value (insulin resistant HepG2 cells, acute insulin (3 nM)) is on record?
Answer: did not promote incorporation of additional IR into condensates; also recorded: did not promote incorporation of additional IR into puncta

Question: And the “IR signal intensity in puncta” value [1]?
Answer: caused an increase; also recorded: elevated IR-GFP signal in these puncta; also recorded: promotes an increase in IR-GFP signal in IR puncta

Question: What about the “number of IR puncta in the cytoplasm and nucleus” value [1] of the same compound?
Answer: caused an increase; also recorded: increased numbers of cytoplasmic and nuclear puncta; also recorded: an increase in the number of IR puncta in the nucleus and cytoplasm

Question: What about the “IR-incorporation into condensates over a range of insulin concentrations” value (insulin-sensitive cells, 0, 0.1, 1, 10, 100 nM insulin 5 min (FIGS. 17G-17H)) of the same compound?
Answer: non-linear transition

Question: With TNFα as the compound, how does the “insulin-stimulated IR incorporation into puncta” value (HepG2 cells, 2 days pathological TNFα or high nutrients, 3 nM insulin 5 min (FIG. 27)) read?
Answer: caused a decrease in insulin-stimulated IR incorporation into puncta

Question: Which results are given for CN(C)C(=N)N=C(N)N [metformin, reference compound]?
Answer: IR condensate rescue (insulin resistant HepG2 cells, 12.5 uM metformin): significant; also recorded: evident; intensity of IR signal in condensates [2]: dose-dependent increase; number of IR containing condensates [2]: dose-dependent increase; effect on IR condensates (insulin sensitive HepG2 cells, 50 nM metformin as printed (FIG. 13A)): little or no effect on IR condensates; IR signal in puncta (insulin-resistant IR-GFP HepG2 cells, 12.5 μM metformin, 3 nM insulin 5 min (FIGS. 16D-16E, 30A)): partially restored IR signal in these puncta; effect on IR puncta / IR condensates (insulin-sensitive HepG2 IR-GFP cells with or without metformin (50 μM in FIG. 30B), 3 nM insulin 5 min): little or no effect on IR puncta; also recorded: does not affect IR condensates in insulin sensitive cells
